# From US5767297A, “Taxoid derivative and method of producing thereof” (Ensuiko Sugar Refining Co., Ltd., priority 1997, dated 1998)
# Assays:
# [1] = stability in aqueous solutions; assay type: physicochemical
# [2] = solubility in water (stirred 18 hours, filtrate analyzed by HPLC)
# Experimental: (§1) After stirring, supernatant was filtered by a membrane filter (0.45,μm) and a filtate was analyzed by HPLC.
# (§2) Colum: Taxil 5μ (4.6×250 mm), made by MetaChem
# Solvent: MeOH/H2 O (80/20)
# Detector: photodiode detector (230 nm)
# tubulin = assay: microtubule depolymerization-inhibiting activity (absorbance at 350 nm after adding calcium chloride); assay type: biochemical; settings: relative to paclitaxel; 5 μM
# Experimental: Next, each of the above-described samples is mixed with tubulin (a main constituting protein of microtubule) and allowed to react at 37° C. for 15 minutes. Absorbance at 350 nm of the reaction solution was measured at 2, 5, 10 and 15 minutes after initiation of the reaction. Also, after the reaction ended, calcium chloride was added and, 5 minutes after this adding, absorbance at 350 nm was again measured. From each measured value was determined relative activity of each sample in the case that polymerization-promoting activity and depolymerization-inhibiting activity were taken as 100, and the results are shown in Table 2.
# [3] = water, 18 h
# Experimental: as §1, §2
# Solvent: MeOH/H2 O (80/20)
# Detector: photodiode detector (230 nm)
# [4] = literature, I. Ringer et al.; cited from earlier work
SMILES,stability in aqueous solutions [1],solubility at 18 h [2] [µg/mL],further results
"CC(=O)O[C@H]1C(=O)[C@]2(C)[C@@H](OC(=O)COC3O[C@H](CO)[C@@H](O)[C@H](O)[C@H]3O)C[C@H]3OC[C@@]3(OC(C)=O)[C@H]2[C@H](OC(=O)c2ccccc2)[C@]2(O)C[C@H](OC(=O)[C@H](OC(=O)COC3O[C@H](CO)[C@@H](O)[C@H](O)[C@H]3O)[C@@H](NC(=O)c3ccccc3)c3ccccc3)C(C)=C1C2(C)C (some centres unmarked) [2',7-S-paclitaxel, Diglucosyloxyacetyl-2',7-paclitaxel]",decomposed to paclitaxel in aqueous solutions and unstable in aqueous solutions,48.4,–
"CC(=O)O[C@H]1C(=O)[C@@]2(C)[C@H]([C@H](OC(=O)c3ccccc3)[C@]3(O)C[C@H](OC(=O)[C@H](OC(=O)COC4O[C@H](CO)[C@@H](O)[C@H](O)[C@H]4O)[C@@H](NC(=O)c4ccccc4)c4ccccc4)C(C)=C1C3(C)C)[C@]1(OC(C)=O)CO[C@@H]1C[C@@H]2O (some centres unmarked) [2'-S-paclitaxel, Glucosyloxyacetyl-2'-paclitaxel]",decomposed to paclitaxel in aqueous solutions and unstable in aqueous solutions,30.6,–
"CC(=O)O[C@H]1C(=O)[C@]2(C)[C@@H](OC(=O)COC3O[C@H](CO)[C@@H](O)[C@H](O)[C@H]3O)C[C@H]3OC[C@@]3(OC(C)=O)[C@H]2[C@H](OC(=O)c2ccccc2)[C@]2(O)C[C@H](OC(=O)[C@H](O)[C@@H](NC(=O)c3ccccc3)c3ccccc3)C(C)=C1C2(C)C (some centres unmarked) [7-S-paclitaxel, Glucosyloxyacetyl-7-paclitaxel]",–,14.7,depolymerization-inhibiting activity compared with paclitaxel (in words) (tubulin): more than twice as potent as that of paclitaxel
"CC(=O)O[C@H]1C(=O)[C@@]2(C)[C@H]([C@H](OC(=O)c3ccccc3)[C@]3(O)C[C@H](OC(=O)[C@H](O)[C@@H](NC(=O)c4ccccc4)c4ccccc4)C(C)=C1C3(C)C)[C@]1(OC(C)=O)CO[C@@H]1C[C@@H]2O [Paclitaxel, paclitaxel]",–,–,Solubility [3]: 0.4 µg/mL
CC(=O)O[C@@]12CO[C@@H]1C[C@H](O)[C@@]1(C)C(=O)[C@H](O)C3=C(C)[C@@H](OC(=O)[C@H](O)[C@@H](NC(=O)OC(C)(C)C)c4ccccc4)C[C@@](O)([C@@H](OC(=O)c4ccccc4)[C@H]21)C3(C)C [docetaxel],–,–,solubility in water relative to paclitaxel [4]: 1.3 times
